Source: paper PMC8800111 (The Journal of Biological Chemistry, 2021)

Key:
U3A cells = assay: Cellular ATP levels (CellTiter-Glo); type: cell-based, human; settings: 10 μM, 6 h
[1] = target: proteins of U3A human fibrosarcoma cells (4462 proteins detected) (Homo sapiens, UniProt O60885); type: cell-based; settings: protein BRD4; soluble abundance after heat, U3A cells
[2] = target: proteins of U3A human fibrosarcoma cells (4462 proteins detected) (Homo sapiens, UniProt Q8TAA5); type: cell-based; settings: protein GRPEL2; U3A cells
Sequence of proteins of U3A human fibrosarcoma cells (4462 proteins detected) (Homo sapiens, UniProt Q8TAA5) (Q8TAA5 33-225): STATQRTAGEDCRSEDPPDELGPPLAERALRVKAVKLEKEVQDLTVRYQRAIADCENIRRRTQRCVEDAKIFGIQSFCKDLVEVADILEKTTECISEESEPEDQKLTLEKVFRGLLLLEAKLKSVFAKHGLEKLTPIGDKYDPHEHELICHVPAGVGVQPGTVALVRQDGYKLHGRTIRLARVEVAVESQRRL

[3] = target: proteins of U3A human fibrosarcoma cells (4462 proteins detected) (Homo sapiens, UniProt Q15814); type: cell-based; settings: protein TBCC; U3A cells
Sequence of proteins of U3A human fibrosarcoma cells (4462 proteins detected) (Homo sapiens, UniProt Q15814) (Q15814 whole entry): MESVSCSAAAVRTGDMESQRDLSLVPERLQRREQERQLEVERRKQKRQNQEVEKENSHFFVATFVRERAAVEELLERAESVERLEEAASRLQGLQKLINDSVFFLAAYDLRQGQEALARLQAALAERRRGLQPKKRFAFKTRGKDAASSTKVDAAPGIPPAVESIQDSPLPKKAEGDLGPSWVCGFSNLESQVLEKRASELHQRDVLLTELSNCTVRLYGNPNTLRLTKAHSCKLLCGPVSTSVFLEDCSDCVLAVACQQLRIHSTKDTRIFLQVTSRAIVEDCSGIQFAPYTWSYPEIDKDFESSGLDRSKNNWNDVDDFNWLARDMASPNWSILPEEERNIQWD

[4] = target: proteins of U3A human fibrosarcoma cells (4462 proteins detected) (Homo sapiens, UniProt Q9C0C9); type: cell-based; settings: protein UBE2O; soluble abundance after heat, U3A cells
[5] = target: proteins of U3A human fibrosarcoma cells (4462 proteins detected) (Homo sapiens, UniProt O75449); type: cell-based; settings: protein KATNA1; U3A cells
[6] = target: proteins of U3A human fibrosarcoma cells (4462 proteins detected) (Homo sapiens, UniProt P31689); type: cell-based; settings: protein DNAJA1; U3A cells
[7] = target: proteins of U3A human fibrosarcoma cells (4462 proteins detected) (Homo sapiens, UniProt Q9H0A8); type: cell-based; settings: protein COMMD4; U3A cells
Sequence of proteins of U3A human fibrosarcoma cells (4462 proteins detected) (Homo sapiens, UniProt Q9H0A8) (Q9H0A8 whole entry): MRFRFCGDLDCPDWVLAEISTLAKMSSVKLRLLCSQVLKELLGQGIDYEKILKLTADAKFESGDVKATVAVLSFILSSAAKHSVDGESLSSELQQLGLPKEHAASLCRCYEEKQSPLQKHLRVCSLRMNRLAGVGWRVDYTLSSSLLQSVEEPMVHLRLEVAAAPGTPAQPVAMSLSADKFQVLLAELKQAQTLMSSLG

[8] = target: proteins of U3A human fibrosarcoma cells (4462 proteins detected) (Homo sapiens, UniProt Q9Y316); type: cell-based; settings: protein MEMO1, U3A cells
[9] = target: proteins of U3A human fibrosarcoma cells (4462 proteins detected) (Homo sapiens, UniProt Q07020); type: cell-based; settings: protein RPL18; soluble abundance after heat, U3A cells
[10] = target: proteins of U3A human fibrosarcoma cells (4462 proteins detected) (Homo sapiens, UniProt Q9BZE1); type: cell-based; settings: protein MRPL37; U3A, 10 μM, 2 h
[11] = target: proteins of U3A human fibrosarcoma cells (4462 proteins detected) (Homo sapiens, UniProt P13473); type: cell-based; settings: protein LAMP2; soluble abundance after heat, U3A cells
[12] = target: proteins of U3A human fibrosarcoma cells (4462 proteins detected) (Homo sapiens, UniProt Q9BY89); type: cell-based; settings: protein KIAA1671, U3A cells
Sequence of proteins of U3A human fibrosarcoma cells (4462 proteins detected) (Homo sapiens, UniProt Q9BY89) (Q9BY89 whole entry): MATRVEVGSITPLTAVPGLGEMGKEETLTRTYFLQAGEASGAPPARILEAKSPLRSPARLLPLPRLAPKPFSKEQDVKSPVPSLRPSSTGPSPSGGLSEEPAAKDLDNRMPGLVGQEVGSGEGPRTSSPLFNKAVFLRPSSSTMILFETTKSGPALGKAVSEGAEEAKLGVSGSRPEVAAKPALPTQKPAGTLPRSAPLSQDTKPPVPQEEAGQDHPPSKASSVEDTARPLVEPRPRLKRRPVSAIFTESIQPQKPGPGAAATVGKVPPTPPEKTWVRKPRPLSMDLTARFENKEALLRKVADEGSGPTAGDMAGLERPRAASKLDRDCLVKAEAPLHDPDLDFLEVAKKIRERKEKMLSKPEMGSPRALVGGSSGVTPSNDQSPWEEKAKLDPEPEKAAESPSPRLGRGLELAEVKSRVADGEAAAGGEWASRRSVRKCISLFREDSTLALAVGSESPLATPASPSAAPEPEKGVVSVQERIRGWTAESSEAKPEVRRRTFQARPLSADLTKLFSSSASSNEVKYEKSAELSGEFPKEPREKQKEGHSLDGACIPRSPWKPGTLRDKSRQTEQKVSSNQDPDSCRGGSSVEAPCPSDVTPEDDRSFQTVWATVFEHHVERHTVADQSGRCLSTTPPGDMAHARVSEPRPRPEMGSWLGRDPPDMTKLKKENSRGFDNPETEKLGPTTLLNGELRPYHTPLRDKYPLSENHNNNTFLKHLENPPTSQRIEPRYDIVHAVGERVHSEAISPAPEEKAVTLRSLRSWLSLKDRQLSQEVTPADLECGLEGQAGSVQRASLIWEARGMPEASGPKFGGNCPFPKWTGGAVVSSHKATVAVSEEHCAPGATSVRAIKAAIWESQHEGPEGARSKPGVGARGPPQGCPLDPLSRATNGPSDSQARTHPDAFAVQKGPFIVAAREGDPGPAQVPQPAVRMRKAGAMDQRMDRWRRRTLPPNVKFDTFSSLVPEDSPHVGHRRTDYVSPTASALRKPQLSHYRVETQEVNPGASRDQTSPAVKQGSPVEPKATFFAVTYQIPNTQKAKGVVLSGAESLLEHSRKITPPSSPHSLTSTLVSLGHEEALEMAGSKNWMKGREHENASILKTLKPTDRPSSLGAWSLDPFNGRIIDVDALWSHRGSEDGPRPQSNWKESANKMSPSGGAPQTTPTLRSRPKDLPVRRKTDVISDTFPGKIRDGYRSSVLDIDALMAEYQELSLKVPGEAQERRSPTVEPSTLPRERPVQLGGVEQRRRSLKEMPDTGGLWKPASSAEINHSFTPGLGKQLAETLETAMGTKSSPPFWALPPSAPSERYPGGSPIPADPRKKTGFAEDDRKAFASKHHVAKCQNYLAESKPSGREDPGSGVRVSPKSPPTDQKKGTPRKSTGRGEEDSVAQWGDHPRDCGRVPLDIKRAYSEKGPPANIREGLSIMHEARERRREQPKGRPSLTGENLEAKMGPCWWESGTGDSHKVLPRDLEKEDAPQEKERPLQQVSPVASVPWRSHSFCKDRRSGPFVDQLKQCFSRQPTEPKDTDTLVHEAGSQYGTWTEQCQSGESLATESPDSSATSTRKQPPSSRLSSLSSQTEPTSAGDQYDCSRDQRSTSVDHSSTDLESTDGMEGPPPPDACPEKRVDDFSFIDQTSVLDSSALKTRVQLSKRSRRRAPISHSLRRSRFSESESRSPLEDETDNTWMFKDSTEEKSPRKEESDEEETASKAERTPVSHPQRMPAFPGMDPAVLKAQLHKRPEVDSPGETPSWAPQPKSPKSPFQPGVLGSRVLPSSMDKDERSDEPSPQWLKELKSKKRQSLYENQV

[13] = target: proteins of U3A human fibrosarcoma cells (4462 proteins detected) (Homo sapiens, UniProt Q13541); type: cell-based; settings: protein EIF4EBP1, U3A cells
[14] = target: proteins of U3A human fibrosarcoma cells (4462 proteins detected) (Homo sapiens, UniProt P61313); type: cell-based; settings: protein RPL15; U3A cells
[15] = target: proteins of U3A human fibrosarcoma cells (4462 proteins detected) (Homo sapiens, UniProt O75792); type: cell-based; settings: protein RNASEH2A; U3A cells
Sequence of proteins of U3A human fibrosarcoma cells (4462 proteins detected) (Homo sapiens, UniProt O75792) (O75792 whole entry): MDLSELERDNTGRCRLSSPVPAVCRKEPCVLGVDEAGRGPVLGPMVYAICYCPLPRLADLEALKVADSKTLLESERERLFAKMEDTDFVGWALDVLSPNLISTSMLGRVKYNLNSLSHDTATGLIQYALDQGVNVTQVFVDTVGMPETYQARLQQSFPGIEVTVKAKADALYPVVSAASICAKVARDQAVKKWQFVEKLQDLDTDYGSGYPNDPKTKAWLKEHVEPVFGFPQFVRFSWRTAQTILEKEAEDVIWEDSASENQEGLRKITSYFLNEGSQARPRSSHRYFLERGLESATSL

[16] = target: proteins of U3A human fibrosarcoma cells (4462 proteins detected) (Homo sapiens, UniProt Q96TC7); type: cell-based; settings: protein RMDN3; U3A cells
Sequence of proteins of U3A human fibrosarcoma cells (4462 proteins detected) (Homo sapiens, UniProt Q96TC7) (Q96TC7 whole entry): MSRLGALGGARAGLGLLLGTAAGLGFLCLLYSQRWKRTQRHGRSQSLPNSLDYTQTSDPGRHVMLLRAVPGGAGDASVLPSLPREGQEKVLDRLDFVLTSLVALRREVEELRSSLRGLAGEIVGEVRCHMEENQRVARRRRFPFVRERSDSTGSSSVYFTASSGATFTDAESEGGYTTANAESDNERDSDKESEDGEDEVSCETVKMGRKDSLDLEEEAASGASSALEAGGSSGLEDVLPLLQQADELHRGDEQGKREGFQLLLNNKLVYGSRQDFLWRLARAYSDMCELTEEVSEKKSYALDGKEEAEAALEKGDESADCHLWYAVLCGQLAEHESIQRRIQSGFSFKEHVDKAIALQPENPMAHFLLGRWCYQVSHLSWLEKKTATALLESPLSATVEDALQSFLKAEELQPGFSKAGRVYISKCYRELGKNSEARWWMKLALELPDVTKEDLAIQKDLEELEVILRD

[17] = target: proteins of U3A human fibrosarcoma cells (4462 proteins detected) (Homo sapiens, UniProt Q9NVR0); type: cell-based; settings: protein KLHL11; U3A cells
Sequence of proteins of U3A human fibrosarcoma cells (4462 proteins detected) (Homo sapiens, UniProt Q9NVR0) (Q9NVR0 16-708): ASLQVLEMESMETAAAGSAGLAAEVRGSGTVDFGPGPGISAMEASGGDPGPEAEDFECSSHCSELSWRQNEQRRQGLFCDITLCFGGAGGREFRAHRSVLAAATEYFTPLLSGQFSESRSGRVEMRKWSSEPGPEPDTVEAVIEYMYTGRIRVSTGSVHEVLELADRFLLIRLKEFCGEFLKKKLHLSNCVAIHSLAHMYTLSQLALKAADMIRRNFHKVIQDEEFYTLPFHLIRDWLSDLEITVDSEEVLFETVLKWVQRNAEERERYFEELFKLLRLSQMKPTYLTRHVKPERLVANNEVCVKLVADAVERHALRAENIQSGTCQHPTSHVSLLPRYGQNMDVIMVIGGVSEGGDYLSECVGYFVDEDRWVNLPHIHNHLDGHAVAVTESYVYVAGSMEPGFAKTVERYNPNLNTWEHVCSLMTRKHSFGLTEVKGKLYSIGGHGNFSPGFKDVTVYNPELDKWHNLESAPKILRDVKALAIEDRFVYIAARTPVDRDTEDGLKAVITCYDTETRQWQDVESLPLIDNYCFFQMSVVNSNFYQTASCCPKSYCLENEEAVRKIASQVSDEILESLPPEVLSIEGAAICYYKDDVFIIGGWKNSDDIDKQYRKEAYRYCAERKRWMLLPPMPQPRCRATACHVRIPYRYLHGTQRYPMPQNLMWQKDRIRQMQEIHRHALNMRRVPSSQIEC

[18] = target: proteins of U3A human fibrosarcoma cells (4462 proteins detected) (Homo sapiens, UniProt Q9BQP7); type: cell-based; settings: protein MGME1; soluble abundance after heat, U3A cells
Sequence of proteins of U3A human fibrosarcoma cells (4462 proteins detected) (Homo sapiens, UniProt Q9BQP7) (Q9BQP7 whole entry): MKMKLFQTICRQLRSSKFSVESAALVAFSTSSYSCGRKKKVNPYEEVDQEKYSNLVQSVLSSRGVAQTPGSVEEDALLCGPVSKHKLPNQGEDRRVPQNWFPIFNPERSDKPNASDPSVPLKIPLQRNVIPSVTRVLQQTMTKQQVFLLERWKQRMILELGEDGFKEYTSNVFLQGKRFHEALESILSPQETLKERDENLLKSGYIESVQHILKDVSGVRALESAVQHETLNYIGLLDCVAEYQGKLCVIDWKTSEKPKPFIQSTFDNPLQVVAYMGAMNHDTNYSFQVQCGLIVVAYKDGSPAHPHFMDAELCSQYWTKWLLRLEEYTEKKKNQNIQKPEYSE

[19] = target: proteins of U3A human fibrosarcoma cells (4462 proteins detected) (Homo sapiens, UniProt Q9UL15); type: cell-based; settings: protein BAG5; U3A cells
Sequence of proteins of U3A human fibrosarcoma cells (4462 proteins detected) (Homo sapiens, UniProt Q9UL15) (Q9UL15 whole entry): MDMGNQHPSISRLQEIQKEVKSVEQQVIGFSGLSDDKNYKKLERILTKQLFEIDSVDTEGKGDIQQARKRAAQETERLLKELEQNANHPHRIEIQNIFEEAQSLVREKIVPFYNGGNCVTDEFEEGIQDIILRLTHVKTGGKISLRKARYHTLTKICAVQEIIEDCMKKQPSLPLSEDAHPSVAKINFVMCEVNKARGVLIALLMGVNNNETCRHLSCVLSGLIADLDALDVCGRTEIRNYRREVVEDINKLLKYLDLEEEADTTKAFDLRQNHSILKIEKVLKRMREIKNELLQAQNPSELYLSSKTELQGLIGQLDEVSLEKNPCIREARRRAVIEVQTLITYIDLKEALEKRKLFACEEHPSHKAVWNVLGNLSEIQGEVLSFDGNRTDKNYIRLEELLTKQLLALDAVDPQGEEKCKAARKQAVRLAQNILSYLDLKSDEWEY

[20] = target: proteins of U3A human fibrosarcoma cells (4462 proteins detected) (Homo sapiens, UniProt Q4J6C6); type: cell-based; settings: protein PREPL, U3A cells
[21] = target: proteins of U3A human fibrosarcoma cells (4462 proteins detected) (Homo sapiens, UniProt Q68CP9); type: cell-based; settings: protein ARID2; U3A cells
[22] = target: proteins of U3A human fibrosarcoma cells (4462 proteins detected) (Homo sapiens, UniProt Q9Y221); type: cell-based; settings: protein NIP7; soluble abundance after heat, U3A cells
Sequence of proteins of U3A human fibrosarcoma cells (4462 proteins detected) (Homo sapiens, UniProt Q9Y221) (Q9Y221 whole entry): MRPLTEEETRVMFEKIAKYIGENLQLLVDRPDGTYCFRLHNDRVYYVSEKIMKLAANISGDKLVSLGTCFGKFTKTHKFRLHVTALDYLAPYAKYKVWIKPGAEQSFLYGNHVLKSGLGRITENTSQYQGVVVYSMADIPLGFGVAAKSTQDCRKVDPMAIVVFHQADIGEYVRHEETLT

[23] = target: proteins of U3A human fibrosarcoma cells (4462 proteins detected) (Homo sapiens, UniProt O14964); type: cell-based; settings: protein HGS; U3A cells
[24] = target: proteins of U3A human fibrosarcoma cells (4462 proteins detected) (Homo sapiens, UniProt Q16576); type: cell-based; settings: protein RBBP7; soluble abundance after heat, U3A cells
[25] = design: method as in printed; settings: patients taking this drug for months at a time; ref not given; cited from earlier work
STAT3-dependent genes = system: STAT3-dependent genes; design: method as in PMID 33373063; settings: chronic lymphocytic leukemia; cited from earlier work
[26] = system: STAT3 target genes in U3A cells; assay: STAT3 target gene expression by qRT-PCR in U3A cells; type: cell-based, human; settings: 10 μM 1 h, OSM 90 min
DHFR = target: T1, DHFR (Homo sapiens, UniProt P00374)
T1 sequence (P00374 1-187): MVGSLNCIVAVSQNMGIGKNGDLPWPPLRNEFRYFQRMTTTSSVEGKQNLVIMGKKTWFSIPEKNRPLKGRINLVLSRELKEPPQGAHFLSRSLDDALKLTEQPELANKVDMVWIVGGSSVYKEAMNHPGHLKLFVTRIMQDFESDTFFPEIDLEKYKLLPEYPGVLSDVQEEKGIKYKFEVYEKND

[27] = 11 μM DHFR, 130 μM ligand, 200 μM NADPH, […] DMSO, 25 °C

CCc1nc(N)nc(N)c1-c1ccc(Cl)cc1 [pyrimethamine]
reduction of cellular ATP levels (U3A cells): about 75% | Log2 (PYR/DMSO) [1]: 0.14 | Log2 (PYR/DMSO) [2]: 0.18 | Log2 (PYR/DMSO) [3]: 0.20 | Log2 (PYR/DMSO) [4]: 0.14 | Log2 (PYR/DMSO) [5]: 0.18 | Log2 (PYR/DMSO) [6]: 0.17 | Log2 (PYR/DMSO) [7]: 0.21 | Log2 (PYR/DMSO) [8]: -0.03 | Log2 (PYR/DMSO) [9]: 0.15 | Log2 (PYR/DMSO), MRPL37 [10]: 0.29 | Log2 (PYR/DMSO) [11]: 0.14 | Log2 (PYR/DMSO) [12]: -0.03 | Log2 (PYR/DMSO) [13]: -0.04 | Log2 (PYR/DMSO) [14]: 0.20 | Log2 (PYR/DMSO) [15]: 0.16 | Log2 (PYR/DMSO) [16]: 0.15 | Log2 (PYR/DMSO) [17]: 0.18 | Log2 (PYR/DMSO) [18]: 0.14 | Log2 (PYR/DMSO) [19]: 0.16 | Log2 (PYR/DMSO) [20]: -0.04 | Log2 (PYR/DMSO) [21]: 0.18 | Log2 (PYR/DMSO) [22]: 0.14 | Log2 (PYR/DMSO) [23]: 0.16 | Log2 (PYR/DMSO) [24]: 0.15 | concentration routinely achieved in the serum of patients [25]: 10 µM | inhibition of expression of STAT3-dependent genes in patients (STAT3-dependent genes): on-target activity | OSM-stimulated BCL6 expression [26]: significantly reduced | ΔH (DHFR; [27]): -11.6 ± 0.7 kcal/mol | ΔS (DHFR; [27]): −2.8 ± 1 cal/mol/°C | stoichiometry (DHFR; one-site model): 1.0 ± 0.2 sites
